Laboratory results as given in patent US6207656A, “Vitamin D analogues and their neuronal effects” (Cephalon, Inc., priority 1998, dated 2001).

How the values were obtained:
[1] = Calcemic activity in rats, serum calcium after 7 days oral gavage; format: in vivo, LEW/MOL female rats; conditions: for Calcium in Serum: Table 2A (vehicle 2.46 ± 0.06), ± S.D.
Description: For determining calcemic activity, LEW/MOL female rats (130-170 g) were administered test compounds daily for 7 days by oral gavage. Control rats received the vehicle. Each group consisted of 3 rats. Blood was collected by cardiac puncture on day 7.

[2] = test system: ChAT producing cholinergic cells; test: Fimbria fornix lesion model, cholinergic cell number (ChAT positive septal neurons); format: in vivo, rat
Description: Fimbria fornix lesioned animals treated orally with Compound (A) (n=10) or vehicle (n=10) were assessed using acetyl cholinesterase staining of both the lesion area and hippocampal formation. Animals received either Compound (A) (1 μg/day) or vehicle via oral gavage (14 days). […] Neurol. 284:187 (1989).
Coronal sections were cut at […] with a cryostat and collected throughout the medial septum. Every fourth section was processed for the visualization of ChAT positive neurons. Approximately 12 sections were assessed per brain. Cholinergic cells were counted and expressed as a ratio of lesioned to unlesioned control side. […] The results, presented in FIG. 9, indicate that lesioned animals treated with Compound (A) have an approximate 30% increase in the number of cholinergic cells as compared to vehicle treated lesioned animals.

[3] = Serum calcium in primates; format: in vivo, monkey; conditions: 10 and 30 μg/kg/day oral, 8 days
[4] = test system: rats having bilateral lesions of the fimbria-fornix; test: Locomotor activity (hyperactivity) after bilateral fimbria-fornix lesion; format: in vivo, rat
Description: To determine whether low calcemic doses of vitamin D3 analogs would improve lesion-induced behavioral deficits, Compound (A) (0.1 and 1.0 μg/kg/day) was administered orally once a day (26 days) to rats having bilateral lesions of the fimbria-fornix. Bilateral lesions of the fimbria-fornix cause rats to become hyperactive. To test for hyperactivity, rats were placed in a box marked with squares, where it was observed how many squares the rats entered in a five minute period.

NGF mRNA = test: Induction of NGF mRNA expression in rats; format: in vivo, Sprague Dawley rats; conditions: 8 days (FIG. 1)
Description: Five hours after the last dose, the animals were sacrificed by decapitation. Each brain was quickly removed and chilled in ice-cold saline. The brain was cut into 2 mm thick coronal sections. Portions of the hippocampus, encompassing the CA1 region, and the medial septum were removed by punching 2 mm^3 sections using a calibrated tissue punch. Punched sections were immediately frozen on dry ice and then stored at -70° C. RNA was prepared from dissected tissue pieces.
Punches of tissue were homogenized in […] RNAzolB™ (Bioteex Laboratories, Houston, Tex.) using a homogenizer (Tekmar, Germany) until fully homogenized and then 250 μl RNAzilB™ was added. Typically, punches from the corresponding regions of brains of 2 to 3 animals were combined together. RNA was prepared as recommended by the manufacturer (Biotecx Laboratories). Following isopropanol precipitation, RNA was reprecipitated with ethanol and finally resuspended in 25-50 μL of water. Concentration of RNA was measured spectrophotometrically and the quality of RNA was visualized on a nondenaturing agarose gel. Equal amounts of RNA, usually 1-2 μg, were reverse transcribed using Superscript II™ (Gibco BRL), as recommended by the manufacturer. The assay was terminated by incubation at 95° C. 1 min. at 55-60° C. (depending on the primer set) and 2 min. at 72° C. […] After the assay, samples were electrophoresed on 5% nondenaturing acrylamide gels. Gels were dried and the resulting labeled bands were visualized on a phosphorimager (Storm 840, Molecular Dynamics, Sunnyvale, Calif.). The following primers were used: […]
Nerve Growth Factor (NGF). Primers were designed against the rat sequence.

GDNF mRNA = test: Induction of GDNF mRNA expression in rats; format: in vivo, Sprague Dawley rats; conditions: 0.3, 1.0 and 3.0 μg/kg oral, 8 days; septum and hippocampus (FIG. 1)
Description: Young adult male Sprague Dawley rats (250-350 g) were administered Compound (A), Compound (E), or a vehicle (80% propylene glycol (human formulation grade; Spectrum Quality Products, Inc., Gardena, Calif., catalog #PR130-55003) and 20% phosphate buffer, pH 9.2) at doses ranging from 0.1 to 5.5 μg/kg daily by oral gavage for eight days. Five hours after the last dose, the animals were sacrificed by decapitation. Each brain was quickly removed and chilled in ice-cold saline. The brain was cut into 2 mm thick coronal sections. Portions of the hippocampus, encompassing the CA1 region, and the medial septum were removed by punching 2 mm^3 sections using a calibrated tissue punch. Punched sections were immediately frozen on dry ice and then stored at -70° C. RNA was prepared from dissected tissue pieces.
Punches of tissue were homogenized in […] RNAzolB™ (Bioteex Laboratories, Houston, Tex.) using a homogenizer (Tekmar, Germany) until fully homogenized and then 250 μl RNAzilB™ was added. Typically, punches from the corresponding regions of brains of 2 to 3 animals were combined together. RNA was prepared as recommended by the manufacturer (Biotecx Laboratories). […] Concentration of RNA was measured spectrophotometrically and the quality of RNA was visualized on a nondenaturing agarose gel. […]

## C=C1/C(=C\C=C2/CCC[C@]3(C)[C@@H]([C@@H](C)[C@@H](C#CCC(O)(CC)CC)OCC)CC[C@@H]23)C[C@@H](O)C[C@@H]1O [Compound (A), 1(S),3(R)-dihydroxy-20(R)-(1-ethoxy-5-ethyl-5-hydroxy-2-heptyn-1-yl)-9,10-seco-pregna-5(Z),7(E),10(19)-triene]
[1]; 0.1 μg/kg/day p.o.
  Calcium in Serum: 2.52 ± 0.02 mmol/L
[1]; 1.0 μg/kg/day p.o.
  Calcium in Serum: 2.62 ± 0.02 mmol/L
[1]; 10 μg/kg/day p.o., Table 2A
  Calcium in Serum column: toxicity: toxic
[1]; rat, in vivo, po
  Calcemic Activity (%): 24%
[1]; summary statement
  calcemic classification: exemplary of low calcemic vitamin D3 analogues
[2]; 1 μg/day oral gavage, 14 days (FIG. 9)
  increase in number of cholinergic cells vs vehicle treated lesioned animals: ~30%
[2]; FIG. 9, partially fimbria fornix lesioned animals vs vehicle
  septal neurons expressing ChAT: increase in septal neurons expressing ChAT
[3]
  serum calcium levels: did not increase serum calcium levels and were not hypercalcemic doses
[4]; 1.0 μg/kg/day oral, 26 days
  locomotor activity (squares entered per 5 minutes): reduced locomotor activity
[4]; FIG. 10 legend, oral
  locomotor activity caused by fimbria fornix lesions: reduces locomotor activity
NGF mRNA; 0.3 μg/kg oral
  production of NGF mRNA: did not facilitate the production of NGF mRNA
NGF mRNA; 1.0 and 3.0 μg/kg oral
  production of NGF mRNA: facilitated the production of NGF mRNA
GDNF mRNA
  production of GDNF mRNA: facilitated the production of NRT-like mRNA, GDNF mRNA
